The results in this text go back to US9963434B2, “N-arylmethyl sulfonamide negative modulators of NR2A” (LUC THERAPEUTICS, priority 2013, dated 2018).

pIC50: −log10 of the molar value. Read-outs that look alike come from different tables or passages of the source.

The test addresses NR1/NR2A (Homo sapiens (Human), UniProt Q05586+Q12879). Put plainly: FDSS Ca2+ influx inhibition assay in HEK293 cells expressing NR1/NR2A. In kind it is cell-based. Conditions: 3 μM glutamate, 3 μM glycine, 1 mM Ca2+. The method, boiled down:
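Fluo-8-loaded HEK293 NR1/NR2A cells preincubated 10 min with compound at 10 μM final (0.1% DMSO) in Ca2+/Mg2+-free HBSS with 20 mM HEPES. Stimulated with 3 μM glutamate, 3 μM glycine, 1 mM Ca2+; FDSS recording for 3 min, end/baseline fluorescence ratio compared with MK801.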

Where [1] appears, read: inhibition relative to MK801, read-out: NR2A IC50.

NR1/NR2A, sequence (Q12879 23-1464, other chains not shown): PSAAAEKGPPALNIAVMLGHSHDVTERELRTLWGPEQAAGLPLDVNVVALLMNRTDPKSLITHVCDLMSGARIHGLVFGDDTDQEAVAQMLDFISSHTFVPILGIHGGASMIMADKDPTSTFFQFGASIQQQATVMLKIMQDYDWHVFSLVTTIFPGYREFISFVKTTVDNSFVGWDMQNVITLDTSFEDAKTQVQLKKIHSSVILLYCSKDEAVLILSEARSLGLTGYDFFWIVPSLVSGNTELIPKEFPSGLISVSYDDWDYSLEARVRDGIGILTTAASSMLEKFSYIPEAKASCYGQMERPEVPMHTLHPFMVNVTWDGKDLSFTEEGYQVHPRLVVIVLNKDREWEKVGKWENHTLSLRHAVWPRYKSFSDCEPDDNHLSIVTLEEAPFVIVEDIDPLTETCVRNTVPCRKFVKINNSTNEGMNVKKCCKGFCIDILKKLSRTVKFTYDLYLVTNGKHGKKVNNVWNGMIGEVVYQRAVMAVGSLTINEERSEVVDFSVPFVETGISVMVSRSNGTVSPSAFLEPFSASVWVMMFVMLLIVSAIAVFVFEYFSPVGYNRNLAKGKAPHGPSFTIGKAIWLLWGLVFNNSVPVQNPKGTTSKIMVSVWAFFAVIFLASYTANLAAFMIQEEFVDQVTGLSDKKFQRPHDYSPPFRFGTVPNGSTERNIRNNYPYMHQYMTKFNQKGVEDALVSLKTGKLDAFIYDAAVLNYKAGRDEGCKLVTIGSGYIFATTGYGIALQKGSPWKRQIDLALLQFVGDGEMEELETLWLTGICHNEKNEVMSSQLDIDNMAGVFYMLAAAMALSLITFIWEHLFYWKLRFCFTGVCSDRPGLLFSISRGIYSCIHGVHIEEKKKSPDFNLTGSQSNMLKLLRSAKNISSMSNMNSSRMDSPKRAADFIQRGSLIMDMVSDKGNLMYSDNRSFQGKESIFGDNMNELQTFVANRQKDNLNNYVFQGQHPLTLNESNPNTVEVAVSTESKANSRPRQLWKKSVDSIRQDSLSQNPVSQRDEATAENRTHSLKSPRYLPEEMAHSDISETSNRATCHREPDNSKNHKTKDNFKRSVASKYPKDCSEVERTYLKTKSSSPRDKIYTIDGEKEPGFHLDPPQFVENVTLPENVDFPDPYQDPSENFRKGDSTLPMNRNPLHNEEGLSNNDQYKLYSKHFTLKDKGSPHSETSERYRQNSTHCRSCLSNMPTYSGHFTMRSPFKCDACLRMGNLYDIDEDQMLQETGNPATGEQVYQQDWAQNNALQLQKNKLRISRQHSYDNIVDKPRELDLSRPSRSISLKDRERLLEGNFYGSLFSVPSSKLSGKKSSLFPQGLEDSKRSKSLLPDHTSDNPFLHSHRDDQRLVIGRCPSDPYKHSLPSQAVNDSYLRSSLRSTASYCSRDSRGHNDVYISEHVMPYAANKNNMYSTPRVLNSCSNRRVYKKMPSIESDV

Take `Cc1ncc(CNC(=O)c2ccc(CNC(=O)c3ccc(Cl)c(Cl)c3)cn2)s1` [5-{[(3,4-dichlorophenyl)form-amido]methyl}-N-[(2-methyl-1,3-thiazol-5-yl)methyl]pyridine-2-carboxamide]: the pIC50 reads like this: under setting [1], 5.00; (read-out: Binned Activity) under 5.00.
The matching figures for `Cn1cccc1CNC(=O)c1ccc(CNS(=O)(=O)c2ccc(F)c(Cl)c2)nc1` [6-(3-chloro-4-fluorobenzenesulfon-amidomethyl)-N-[(1-methyl-1H-pyrrol-2-yl)methyl]pyridine-3-carboxamide]: 5.00 and under 5.00.
In the case of `COc1cc(CNC(=O)c2ccc(CNS(=O)(=O)c3ccc(F)c(Cl)c3)cn2)ccn1` [5-(3-chloro-4-fluorobenzenesulfon-amidomethyl)-N-[(2-methoxypyridin-4-yl)methyl]pyridine-2-carboxamide], the pIC50 (read-out: Binned Activity) was 5.00 to 6.00.
In the case of `C[C@@H](NC(=O)c1ccc(CNS(=O)(=O)c2ccc(F)c(Cl)c2)nc1)c1cncs1` [6-(3-chloro-4-fluorobenzenesulfon-amidomethyl)-N-[(1R)-1-(1,3-thiazol-5-yl)ethyl]pyridine-3-carboxamide], under setting [1], the pIC50 is 5.00.
Consider `COc1ccc(CNC(=O)c2cnc(CNS(=O)(=O)c3ccc(F)c(Cl)c3)cn2)cc1` [5-(3-chloro-4-fluorobenzenesulfon-amidomethyl)-N-[(4-methoxyphenyl)methyl] pyrazine-2-carboxamide], for which the pIC50 was 5.00 under setting [1] and under 5.00 (read-out: Binned Activity).
`O=C(NCc1nccs1)c1ccc(CNS(=O)(=O)c2ccc(F)c(Cl)c2)cn1` [5-(3-chloro-4-fluorobenzenesulfon-amidomethyl)-N-(1,3-thiazol-2-ylmethyl)pyridine-2-carboxamide]: under “read-out: Binned Activity”, the pIC50 was 5.00 to 6.00.
In the case of `O=C(NCc1cccs1)c1ccc(CNS(=O)(=O)c2ccc(F)c(Cl)c2)nn1` [6-(3-chloro-4-fluorobenzenesulfon-amidomethyl)-N-(thiophen-2-ylmethyl)pyridazine-3-carboxamide], the pIC50 reads like this: under setting [1], 5.00; (read-out: Binned Activity) under 5.00.
With `Cn1cncc1CNC(=O)c1ccc(CNS(=O)(=O)c2ccc(F)c(Cl)c2)cn1` [5-(3-chloro-4-fluorobenzenesulfon-amidomethyl)-N-[(1-methyl-1H-imidazol-5-yl)methyl]pyridine-2-carboxamide], the pIC50 (read-out: Binned Activity) was 5.00 to 6.00.
In the case of `Cc1ncc(CNC(=O)c2ccc(CNS(=O)(=O)c3cc(Cl)ccc3F)cn2)s1` [5-(5-chloro-2-fluorobenzenesulfon-amidomethyl)-N-[(2-methyl-1,3-thiazol-5-yl)methyl]pyridine-2-carboxamide], the pIC50 is 5.00 under setting [1] and under 5.00 (read-out: Binned Activity).
In the case of `Cc1ncc(CNC(=O)c2ccc(CNS(=O)(=O)c3ccc(Cl)c(F)c3)cn2)s1` [5-(4-chloro-3-fluorobenzenesulfon-amidomethyl)-N-[(2-methyl-1,3-thiazol-5-yl)methyl]pyridine-2-carboxamide], for the setting “read-out: Binned Activity”, the pIC50 is 5.00 to 6.00.
In the case of `Cc1ncc(CNC(=O)c2cnc(CNS(=O)(=O)c3ccc(Cl)c(Cl)c3)cn2)s1` [5-(3,4-dichlorobenzenesulfon-amidomethyl)-N-[(2-methyl-1,3-thiazol-5-yl)methyl]pyrazine-2-carboxamide], the pIC50 is, setting by setting: under setting [1], 5.00; (read-out: Binned Activity) under 5.00.
The matching figures for `Cc1ccc(CNC(=O)c2ccc(CNS(=O)(=O)c3ccc(F)c(Cl)c3)cn2)s1` [5-(3-chloro-4-fluorobenzenesulfon-amidomethyl)-N-[(5-methylthiophen-2-yl)methyl]pyridine-2-carboxamide]: 5.00 and under 5.00.
For the compound `CC(NC(=O)c1ccc(CNS(=O)(=O)c2ccc(F)c(Cl)c2)cn1)c1ccco1` (stereo not shown) [5-(3-chloro-4-fluorobenzenesulfon-amidomethyl)-N-[1-(furan-2-yl)ethyl]pyridine-2-carboxamide], the pIC50 (read-out: Binned Activity) was 5.00 to 6.00.
For the compound `Cc1ccncc1CNC(=O)c1cnc(CNS(=O)(=O)c2ccc(F)c(Cl)c2)cn1` [5-(3-chloro-4-fluorobenzenesulfon-amidomethyl)-N-[(4-methylpyridin-3-yl)methyl]pyrazine-2-carboxamide], for the setting “read-out: Binned Activity”, the pIC50 is 6.00 to 7.00.
On to `Cc1ncc(CNC(=O)c2cnc(CNS(=O)(=O)c3ccsc3)cn2)s1` [N-[(2-methyl-1,3-thiazol-5-yl)methyl]-5-(thiophene-3-sulfonamidomethyl) pyrazine-2-carboxamide], for which the pIC50 is 5.00 under setting [1] and under 5.00 (read-out: Binned Activity).
In the case of `Cc1ncc(CNC(=O)c2cnc(CNS(=O)(=O)c3ccc(F)c(F)c3)cn2)s1` [5-(3,4-difluorobenzenesulfon-amidomethyl)-N-[(2-methyl-1,3-thiazol-5-yl)methyl]pyrazine-2-carboxamide], for the setting “read-out: Binned Activity”, the pIC50 was 6.00 to 7.00.
As to `Cc1cccc(CNC(=O)c2ccc(CNS(=O)(=O)c3ccc(F)c(Cl)c3)nc2)n1` [6-(3-chloro-4-fluorobenzenesulfon-amidomethyl)-N-[(6-methylpyridin-2-yl)methyl]pyridine-3-carboxamide], the pIC50 under setting [1] was 5.00 and the pIC50 (read-out: Binned Activity) is under 5.00.
The matching figures for `Cc1ncc(CNC(=O)c2ccc(CNS(=O)(=O)c3cc4ccccc4s3)cn2)s1` [5-(1-benzothiophene-2-sulfonamidomethyl)-N-[(2-methyl-1,3-thiazol-5-yl)methyl]pyridine-2-carboxamide]: 5.00 and under 5.00.
As to `C[C@@H](NC(=O)c1cnc(CNS(=O)(=O)c2ccc(F)c(Cl)c2)cn1)c1cncs1` [5-(3-chloro-4-fluorobenzenesulfon-amidomethyl)-N-[(1R)-1-(1,3-thiazol-5-yl)ethyl]pyrazine-2-carboxamide], under “read-out: Binned Activity”, the pIC50 was under 5.00.
For `Cc1ncc(CNC(=O)c2cnc(CNC(=O)c3ccc(Cl)cc3Cl)cn2)s1` [5-{[(2,4-dichlorophenyl)form-amido]methyl}-N-[(2-methyl-1,3-thiazol-5-yl)methyl]pyrazine-2-carboxamide], the pIC50 runs as follows: under setting [1], 5.00; (read-out: Binned Activity) under 5.00.
The matching figures for `Cc1ncc(CNC(=O)c2ccc(CNC(=O)c3cccc(Cl)c3C)cn2)s1` [5-{[(3-chloro-2-methylphenyl)formamido]methyl}-N-[(2-methyl-1,3-thiazol-5-yl)methyl]pyridine-2-carboxamide]: 5.00 and under 5.00.
The matching figures for `Cn1cnc(CNC(=O)c2cnc(CNS(=O)(=O)c3ccc(F)c(Cl)c3)cn2)c1` [5-(3-chloro-4-fluorobenzenesulfon-amidomethyl)-N-[(1-methyl-1H-imidazol-4-yl)methyl]pyrazine-2-carboxamide]: 5.00 and under 5.00.
Take `O=C(NCc1ccoc1)c1ccc(CNS(=O)(=O)c2ccc(F)c(Cl)c2)nn1` [6-(3-chloro-4-fluorobenzenesulfon-amidomethyl)-N-(furan-3-ylmethyl)pyridazine-3-carboxamide]: the pIC50 is, setting by setting: under setting [1], 5.00; (read-out: Binned Activity) under 5.00.
In the case of `O=C(NCc1cccnc1)c1ccc(CNS(=O)(=O)c2ccc(F)c(Cl)c2)nc1` [6-(3-chloro-4-fluorobenzenesulfon-amidomethyl)-N-(pyridin-3-ylmethyl)pyridine-3-carboxamide], for the setting “read-out: Binned Activity”, the pIC50 was under 5.00.
With `Cc1nc(CNC(=O)c2ccc(CNS(=O)(=O)c3ccc(F)c(Cl)c3)cn2)cs1` [5-(3-chloro-4-fluorobenzenesulfon-amidomethyl)-N-[(2-methyl-1,3-thiazol-4-yl)methyl]pyridine-2-carboxamide], the pIC50 by setting is: under setting [1], 5.00; (read-out: Binned Activity) under 5.00.
The matching figures for `Cc1csc(CNC(=O)c2ccc(CNS(=O)(=O)c3ccc(F)c(Cl)c3)nc2)n1` [6-(3-chloro-4-fluorobenzenesulfon-amidomethyl)-N-[(4-methyl-1,3-thiazol-2-yl)methyl]pyridine-3-carboxamide]: 5.00 and under 5.00.
The matching figures for `COc1ccc(CCNC(=O)c2ccc(CNS(=O)(=O)c3ccc(F)c(Cl)c3)nn2)cc1` [6-(3-chloro-4-fluorobenzenesulfon-amidomethyl)-N-[2-(4-methoxyphenyl)ethyl] pyridazine-3-carboxamide]: 5.00 and under 5.00.
The matching figures for `Cc1csc(CNC(=O)c2ccc(CNS(=O)(=O)c3ccc(F)c(Cl)c3)cn2)n1` [5-(3-chloro-4-fluorobenzenesulfon-amidomethyl)-N-[(4-methyl-1,3-thiazol-2-yl)methyl]pyridine-2-carboxamide]: 5.00 and under 5.00.
Take `Cc1ncc(CNC(=O)c2ccc(CNS(=O)(=O)c3cn(C)cn3)cn2)s1` [N-[(2-methyl-1,3-thiazol-5-yl)methyl]-5-(1-methyl-1H-imidazole-4-sulfonamidomethyl) pyridine-2-carboxamide]: the pIC50 is 5.00 under setting [1] and under 5.00 (read-out: Binned Activity).
The matching figures for `Cc1ncc(CNC(=O)c2cnc(CNS(=O)(=O)c3cc(F)cc(F)c3)cn2)s1` [5-(3,5-difluorobenzenesulfon-amidomethyl)-N-[(2-methyl-1,3-thiazol-5-yl)methyl]pyrazine-2-carboxamide]: 5.00 and under 5.00.
As for `COc1cccc(CNC(=O)c2ccc(CNS(=O)(=O)c3ccc(F)c(Cl)c3)cn2)c1` [5-(3-chloro-4-fluorobenzenesulfon-midomethyl)-N-[(3-methoxyphenyl)methyl] pyridine-2-carboxamide], under “read-out: Binned Activity”, the pIC50 is 5.00 to 6.00.
As to `O=C(NCc1ccccn1)c1cnc(CNS(=O)(=O)c2ccc(F)c(Cl)c2)cn1` [5-(3-chloro-4-fluorobenzenesulfon-amidomethyl)-N-(pyridin-2-ylmethyl)pyrazine-2-carboxamide], the pIC50 runs as follows: under setting [1], 5.00; (read-out: Binned Activity) under 5.00.
As to `O=C(NCc1ccco1)c1ccc(CNS(=O)(=O)c2ccc(F)c(Cl)c2)cn1` [5-(3-chloro-4-fluorobenzenesulfon-amidomethyl)-N-(furan-2-ylmethyl)pyridine-2-carboxamide], the pIC50 under setting [1] was 5.00 and the pIC50 (read-out: Binned Activity) is under 5.00.
